How the values were obtained:
Experiment in all cases: Test B pre-/postemergence plant response
Format in all cases: in vivo
[1] = test system: corn (Zea mays); conditions: for Corn plant response rating: 8 g ai/ha
In short: (§1)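 Preemergence and postemergence (plants 2-18 cm, 1- to 4-leaf stage) applications used test chemicals in a non-phytotoxic solvent with surfactant. Plants were held in a greenhouse 13 to 15 days, then rated visually against controls on a 0-100 scale (0 no effect, 100 complete control).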

[2] = test system: johnsongrass (Sorghum halepense); conditions: for Johnsongrass plant response rating: 8 g ai/ha
In short: as §1

[3] = test system: velvetleaf (Abutilon theophrasti); conditions: for Velvetleaf plant response rating: 8 g ai/ha
In short: as §1

[4] = test system: woolly cupgrass (Eriochloa villosa); conditions: for Cupgrass, Woolly plant response rating: 8 g ai/ha
In short: as §1

[5] = test system: cocklebur (Xanthium strumarium); conditions: for Cocklebur plant response rating: 8 g ai/ha
In short: as §1

[6] = test system: catchweed bedstraw (Galium aparine); conditions: Preemergence
In short: as §1

[7] = test system: kochia (Kochia scoparia); conditions: for Kochia plant response rating: 8 g ai/ha
In short: as §1

[8] = test system: wild oat (Avena fatua); conditions: for Oat, Wild plant response rating: 8 g ai/ha
In short: as §1

[9] = test system: goosegrass (Eleusine indica); conditions: for Goosegrass plant response rating: 8 g ai/ha
In short: as §1

[10] = test system: Russian thistle (Salsola iberica); conditions: Preemergence
In short: as §1

[11] = test system: large crabgrass (Digitaria sanguinalis); conditions: for Crabgrass, Large plant response rating: 8 g ai/ha
In short: as §1

[12] = test system: common ragweed (Ambrosia elation); conditions: for Ragweed plant response rating: 8 g ai/ha
In short: as §1

[13] = test system: blackgrass (Alopecurus myosuroides); conditions: for Blackgrass plant response rating: 8 g ai/ha
In short: as §1

[14] = test system: yellow nutsedge (Cyperus esculentus); conditions: for Nutsedge, Yellow plant response rating: 8 g ai/ha
In short: as §1

[15] = Postemergence, 16 g ai/ha, scale 0 to 100
[16] = Postemergence, 31 g ai/ha, scale 0 to 100, 0 no effect, 100 complete control
[17] = Postemergence, 62 g ai/ha, scale 0 to 100, 0 no effect, 100 complete control
[18] = Preemergence, 16 g ai/ha, scale 0 to 100 (0 no effect, 100 complete control)
[19] = Preemergence, 31 g ai/ha, 0 to 100 scale, 0 no effect, 100 complete control
[20] = Preemergence, 62 g ai/ha, scale 0 to 100
[21] = Preemergence, 31 g ai/ha, scale 0 to 100 (0 no effect, 100 complete control)
[22] = 16 g ai/ha, scale 0 to 100 (0 no effect, 100 complete control)

CCc1cc(-c2ccc(Cl)cc2)nn1-c1c(OC(=O)C(C)(C)C)cnn(C)c1=O [Compound 40]
98: Plant response rating, Johnsongrass [2, 16] | Plant response rating, Johnsongrass [2, 19] | Plant response rating, Johnsongrass [2, 20] | Cupgrass, Woolly plant response rating ([4]; postemergence, 0-100 scale) | Plant response rating, Cupgrass, Woolly [4, 15] | Goosegrass plant response rating ([9]; Preemergence, scale 0 to 100) | Plant response rating, Crabgrass, Large [11, 15] | Plant response rating, Crabgrass, Large [11, 16]
70: Crabgrass, Large plant response rating ([11]; postemergence, 0-100 scale)
95: Plant response rating, Corn [1, 20] | Plant response rating, Johnsongrass [2, 18] | Oat, Wild plant response rating ([8]; postemergence, 0-100 scale) | Plant response rating, Oat, Wild [8, 20] | Plant response rating, Blackgrass [13, 18] | Plant response rating, Blackgrass [13, 19] | Plant response rating, Blackgrass [13, 20] | Blackgrass plant response rating ([13]; Preemergence, scale 0 to 100)
15: Cupgrass, Woolly plant response rating ([4]; Preemergence, scale 0 to 100)
80: Plant response rating, Goosegrass [9, 16]
60: Oat, Wild plant response rating ([8]; Preemergence, scale 0 to 100) | Goosegrass plant response rating ([9]; postemergence, 0-100 scale)
85: Plant response rating, Corn [1, 19] | Plant response rating, Oat, Wild [8, 18] | Blackgrass plant response rating ([13]; postemergence, 0-100 scale)
90: Johnsongrass plant response rating ([2]; Preemergence, scale 0 to 100) | Plant response rating, Oat, Wild [8, 21] | Plant response rating, Blackgrass [13, 15] | Plant response rating, Blackgrass [13, 16] | Plant response rating, Blackgrass [13, 17]
0: Corn plant response rating ([1]; postemergence, 0-100 scale) | Plant response rating, Corn [1, 15] | Johnsongrass plant response rating ([2]; postemergence, 0-100 scale) | Plant response rating, Johnsongrass [2, 15] | Velvetleaf plant response rating ([3]; postemergence, 0-100 scale) | Plant response rating, Velvetleaf [3, 15] | Plant response rating, Velvetleaf [3, 17] | Plant response rating, Velvetleaf [3, 18] | Plant response rating, Velvetleaf [3, 21] | Plant response rating, Velvetleaf ([3]; Preemergence, 62 g ai/ha, 0 to 100 scale, 0 no effect, 100 complete control) | Velvetleaf plant response rating ([3]; Preemergence, scale 0 to 100) | Cocklebur plant response rating ([5]; postemergence, 0-100 scale) | Plant response rating, Cocklebur [5, 15] | Plant response rating, Cocklebur [5, 16] | Plant response rating, Cocklebur [5, 17] | Plant response rating, Cocklebur [5, 18] | Plant response rating, Cocklebur [5, 19] | Plant response rating, Cocklebur [5, 20] | Cocklebur plant response rating ([5]; Preemergence, scale 0 to 100) | Plant response rating, Galium [6, 22] | Plant response rating, Galium ([6]; 31 g ai/ha, 0 to 100 scale, 0 no effect, 100 complete control) | Plant response rating, Galium ([6]; 62 g ai/ha, scale 0 to 100) | Galium plant response rating ([6]; 8 g ai/ha, scale 0 to 100) | Kochia plant response rating ([7]; postemergence, 0-100 scale) | Plant response rating, Kochia [7, 15] | Plant response rating, Kochia [7, 16] | Plant response rating, Kochia [7, 17] | Plant response rating, Kochia [7, 18] | Plant response rating, Kochia [7, 19] | Plant response rating, Kochia [7, 20] | Kochia plant response rating ([7]; Preemergence, scale 0 to 100) | Plant response rating, Russian Thistle [10, 22] | Plant response rating, Russian Thistle ([10]; 31 g ai/ha, scale 0 to 100 (0 no effect, 100 complete control)) | Plant response rating, Russian Thistle ([10]; 62 g ai/ha, scale 0 to 100) | Russian Thistle plant response rating ([10]; 8 g ai/ha, scale 0 to 100) | Ragweed plant response rating ([12]; postemergence, 0-100 scale) | Plant response rating, Ragweed [12, 15] | Plant response rating, Ragweed [12, 16] | Plant response rating, Ragweed [12, 17] | Plant response rating, Ragweed [12, 18] | Plant response rating, Ragweed [12, 21] | Plant response rating, Ragweed [12, 20] | Ragweed plant response rating ([12]; Preemergence, scale 0 to 100) | Nutsedge, Yellow plant response rating ([14]; postemergence, 0-100 scale) | Plant response rating, Nutsedge, Yellow [14, 15] | Plant response rating, Nutsedge, Yellow [14, 16] | Plant response rating, Nutsedge, Yellow [14, 17] | Plant response rating, Nutsedge, Yellow [14, 18] | Plant response rating, Nutsedge, Yellow [14, 21] | Plant response rating, Nutsedge, Yellow [14, 20] | Nutsedge, Yellow plant response rating ([14]; Preemergence, scale 0 to 100)
100: Plant response rating, Corn [1, 16] | Plant response rating, Corn [1, 17] | Plant response rating, Johnsongrass [2, 17] | Plant response rating, Cupgrass, Woolly [4, 16] | Plant response rating, Cupgrass, Woolly [4, 17] | Plant response rating, Cupgrass, Woolly [4, 18] | Plant response rating, Cupgrass, Woolly [4, 19] | Plant response rating, Cupgrass, Woolly [4, 20] | Plant response rating, Oat, Wild [8, 15] | Plant response rating, Oat, Wild [8, 16] | Plant response rating, Oat, Wild [8, 17] | Plant response rating, Goosegrass [9, 17] | Plant response rating, Goosegrass [9, 18] | Plant response rating, Goosegrass [9, 19] | Plant response rating, Goosegrass [9, 20] | Plant response rating, Crabgrass, Large [11, 17] | Plant response rating, Crabgrass, Large [11, 18] | Plant response rating, Crabgrass, Large [11, 19] | Plant response rating, Crabgrass, Large [11, 20]
75: Plant response rating, Corn [1, 18] | Plant response rating, Goosegrass [9, 15]
45: Crabgrass, Large plant response rating ([11]; Preemergence, scale 0 to 100)
55: Corn plant response rating ([1]; Preemergence, scale 0 to 100)

Reference: patent US20100267561A1, “HERBICIDAL PYRIDAZINONE DERIVATIVES” (priority 2007, published 2010)
